According to patent US12076307B2, “Compositions for prevention or treatment of acute radiation syndrome and other radiation exposure” (priority 2017, dated 2024):

Columns and labels:
[1] = test system: mice, 5-FU + X-radiation 20 Gy on heads and necks; assay: CRIOM (chemoradiation-induced oral mucositis) murine model; assay type: in vivo, mouse
From the text: Radiation-Induced Coagulopathy is worsened in more severe syndromes including mucositis in the oral cavity and GI. As described above, exposure to radiation stimulates DAMP release and DAMP recognized by PRR results in an inflammatory response that causes apoptosis, mucosal atrophy, and ulceration. Specifically, TLR-4 has been identified as a major PRR, which plays a critical role in the pathogenesis of mucosal injury (Vasconcelos et al., 2016). To investigate the mitigating effect of EC-18 against CRIOM, different doses of EC-18 were administered to mice daily. CRIOM mouse model was established using concurrent treatments with 5-FU (100 mg/kg, i.p.) and X-radiation (20 Gy) on heads and necks of mice. PBS or EC-18 (100 and 250 mg/kg, p.o.) was administered daily (n=5 for each group). The body weights of mice were observed, and the mice were sacrificed on day 9.

[2] = Plasma and lymphatic concentrations of EC-18 in rats after single oral administration; assay type: in vivo, rat; conditions: for AUC(0-t) / Cmax / Tmax / half-life: n=3
Protocol: After administering a single oral dose of 500 or 2000 mg/kg of EC-18 (vehicle: olive oil) to male SD rats, the EC-18 concentration in the sampled plasma and lymphatic fluid was measured to generate the values of PK parameters (Table 16). […] The rate of increase in plasma Cmax and AUClast was lower than the rate of increase of the administered dosage.

[3] = Plasma concentrations of EC-18 in non-irradiated and irradiated mice; assay type: in vivo; conditions: male, Balb/c, mouse, po
Protocol: A day after 6.11 Gy gamma-radiation, both irradiated and non-irradiated male Balb/c mice (n=5) were orally administered daily with 50, 100, 250 or 500 mg/kg of EC-18 up to 14 days and analyzed for PK parameters on days 7 and 14 post-radiation (Table 21).

CYP2C9 = target: T1, CYP2C9 (Homo sapiens, UniProt P11712); assay: CYP enzyme inhibition in human liver microsomes, CYP2C9; assay type: in vitro ADME
T1 construct: incubated with human liver microsomes; from tissue; host or cells: human liver microsomes

OCT2 = target: T2, OCT2 (Homo sapiens, UniProt O15244); assay: Drug transporter inhibition, OCT2; assay type: in vitro ADME; conditions: 100 nM [3H] methyl-4-phenylpyridinium; transfected HEK-293 cells
T2 construct: expressed in transfected cells; host or cells: HEK-293
Protocol: This study examined the potential of EC-18 to interact with the transporter proteins that have been known to be involved in the absorption of commercially available drugs. EC-18 was pre-incubated with HEK-293 cells and LLC-PK1 cells that were transfected with the genes of most drug transporters as follows: OATP1B1, OATP1B3, OAT1, OAT3 and OCT2, and BCRP and P-gp, respectively.

[4] = test system: Chinese hamster lung cells (CHL/IU); assay: Chromosomal aberration test; assay type: cell-based; conditions: 6 and 24 hrs; with or without metabolic activation
From the text: (§1) Various toxicology studies have been performed. All studies were GLP-compliant unless otherwise noted.

Guinea pig = assay: Antigenicity test; assay type: in vivo; conditions: Oral; 2 weeks; 500, 2000 mg/kg; 2000 mg/kg + FCA
From the text: as §1

hERG channel = hERG channel (Homo sapiens, UniProt Q12809); assay: In vitro hERG channel inhibition; conditions: for hERG channel current suppression rate (compensated suppression rate): HEK-293 cells
[5] = male, SD, rat, Lymph, 500 mg/kg oral
[6] = male, SD, rat, Lymph, 2000 mg/kg oral
[7] = male, SD, rat, Plasma, 500 mg/kg oral
[8] = male, SD, rat, Plasma, 2000 mg/kg oral
[9] = 50 mg/kg, day 7, 50 mg/kg oral daily, Irradiated 6.11 Gy
[10] = 50 mg/kg, day 7, 50 mg/kg oral daily, Non-irradiated
[11] = 50 mg/kg, day 14, 50 mg/kg oral daily, Irradiated 6.11 Gy
[12] = 50 mg/kg, day 14, 50 mg/kg oral daily, Non-irradiated
[13] = 100 mg/kg, day 7, 100 mg/kg oral daily, Irradiated 6.11 Gy
[14] = 100 mg/kg, day 7, 100 mg/kg oral daily, Non-irradiated
[15] = 100 mg/kg, day 14, 100 mg/kg oral daily, Irradiated 6.11 Gy
[16] = 100 mg/kg, day 14, 100 mg/kg oral daily, Non-irradiated
[17] = 250 mg/kg, day 7, 250 mg/kg oral daily, Irradiated 6.11 Gy
[18] = 250 mg/kg, day 7, 250 mg/kg oral daily, Non-irradiated
[19] = 250 mg/kg, day 14, 250 mg/kg oral daily, Irradiated 6.11 Gy
[20] = 250 mg/kg, day 14, 250 mg/kg oral daily, Non-irradiated
[21] = 500 mg/kg, day 7, 500 mg/kg oral daily, Irradiated 6.11 Gy
[22] = 500 mg/kg, day 7, 500 mg/kg oral daily, Non-irradiated
[23] = 500 mg/kg, day 14, 500 mg/kg oral daily, Irradiated 6.11 Gy
[24] = 500 mg/kg, day 14, 500 mg/kg oral daily, Non-irradiated

Chain of hERG channel (Q12809 whole entry): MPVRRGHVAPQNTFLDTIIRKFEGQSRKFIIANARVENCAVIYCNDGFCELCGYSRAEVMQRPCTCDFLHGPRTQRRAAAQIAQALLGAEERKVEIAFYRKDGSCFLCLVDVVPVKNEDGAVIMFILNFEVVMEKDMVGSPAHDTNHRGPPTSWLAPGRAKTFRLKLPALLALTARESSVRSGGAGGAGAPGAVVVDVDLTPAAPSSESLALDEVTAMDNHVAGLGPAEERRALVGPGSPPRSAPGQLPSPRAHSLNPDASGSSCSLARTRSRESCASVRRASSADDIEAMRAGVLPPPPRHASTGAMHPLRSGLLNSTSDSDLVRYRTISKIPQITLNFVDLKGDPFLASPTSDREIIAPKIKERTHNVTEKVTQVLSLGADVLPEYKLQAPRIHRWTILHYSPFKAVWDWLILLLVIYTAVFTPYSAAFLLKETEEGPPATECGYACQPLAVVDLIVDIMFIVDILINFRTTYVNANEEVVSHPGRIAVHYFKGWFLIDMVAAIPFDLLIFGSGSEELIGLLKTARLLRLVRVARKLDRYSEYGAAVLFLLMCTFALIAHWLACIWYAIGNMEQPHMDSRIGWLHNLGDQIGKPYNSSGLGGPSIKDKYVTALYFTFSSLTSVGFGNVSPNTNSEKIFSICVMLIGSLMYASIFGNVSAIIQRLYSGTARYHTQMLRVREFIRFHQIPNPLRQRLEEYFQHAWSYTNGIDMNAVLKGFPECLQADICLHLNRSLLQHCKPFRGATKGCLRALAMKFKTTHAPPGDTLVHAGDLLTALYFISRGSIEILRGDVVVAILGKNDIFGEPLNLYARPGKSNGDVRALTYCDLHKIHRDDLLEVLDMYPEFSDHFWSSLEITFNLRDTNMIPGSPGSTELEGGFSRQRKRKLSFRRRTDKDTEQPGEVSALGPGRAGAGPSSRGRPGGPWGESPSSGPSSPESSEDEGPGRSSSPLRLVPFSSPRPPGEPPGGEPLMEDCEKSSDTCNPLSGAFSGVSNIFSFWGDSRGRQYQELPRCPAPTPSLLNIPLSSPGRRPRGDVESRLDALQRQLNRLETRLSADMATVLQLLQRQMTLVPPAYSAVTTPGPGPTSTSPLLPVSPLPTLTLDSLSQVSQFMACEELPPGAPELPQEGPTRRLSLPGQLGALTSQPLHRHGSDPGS
T2 sequence (O15244 whole entry): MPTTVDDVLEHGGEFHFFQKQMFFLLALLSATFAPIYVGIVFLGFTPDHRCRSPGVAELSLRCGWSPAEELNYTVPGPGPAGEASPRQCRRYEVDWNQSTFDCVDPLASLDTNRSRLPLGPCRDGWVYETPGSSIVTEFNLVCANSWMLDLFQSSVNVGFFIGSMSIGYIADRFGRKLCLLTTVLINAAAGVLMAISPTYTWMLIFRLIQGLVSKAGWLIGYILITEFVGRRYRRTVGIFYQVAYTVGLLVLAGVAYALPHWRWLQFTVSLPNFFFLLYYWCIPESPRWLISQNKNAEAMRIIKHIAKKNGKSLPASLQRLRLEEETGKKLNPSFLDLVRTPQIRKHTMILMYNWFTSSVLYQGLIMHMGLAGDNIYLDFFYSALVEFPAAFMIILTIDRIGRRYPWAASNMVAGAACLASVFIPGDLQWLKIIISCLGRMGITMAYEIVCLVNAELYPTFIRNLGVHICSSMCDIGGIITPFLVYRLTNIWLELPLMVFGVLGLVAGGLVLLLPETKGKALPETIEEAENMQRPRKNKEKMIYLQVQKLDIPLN
T1 sequence (P11712 whole entry): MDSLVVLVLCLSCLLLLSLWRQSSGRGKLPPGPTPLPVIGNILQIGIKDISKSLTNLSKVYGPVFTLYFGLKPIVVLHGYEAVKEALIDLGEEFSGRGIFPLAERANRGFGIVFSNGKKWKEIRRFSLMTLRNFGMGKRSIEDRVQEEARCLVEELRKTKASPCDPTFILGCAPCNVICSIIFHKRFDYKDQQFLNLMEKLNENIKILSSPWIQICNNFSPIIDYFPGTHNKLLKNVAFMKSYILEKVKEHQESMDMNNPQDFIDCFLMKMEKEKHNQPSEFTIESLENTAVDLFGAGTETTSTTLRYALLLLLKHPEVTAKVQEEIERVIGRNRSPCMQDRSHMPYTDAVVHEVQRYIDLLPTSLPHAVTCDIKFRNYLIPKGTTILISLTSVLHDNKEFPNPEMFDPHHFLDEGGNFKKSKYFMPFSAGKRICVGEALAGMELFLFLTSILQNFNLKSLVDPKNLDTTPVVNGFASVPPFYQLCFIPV

Q: For `CCCCC/C=C\C/C=C\CCCCCCCC(=O)OC(COC(C)=O)COC(=O)CCCCCCCCCCCCCCC` (stereo not shown) [EC-18, 1-palmitoyl-2-linoleoyl-3-acetylglycerol], which “thickness of the oral epithelium” value ([1]; ChemoRT + EC-18) is on record?
A: protective effect

Q: What about the “DAMPs (HMGB1, HSP90) in serum” value ([1]; ChemoRT + EC-18 250 mg/kg) of the same compound?
A: subsided levels of DAMPs

Q: What about the “MIP-2 and IL-6 in serum” value ([1]; ChemoRT + EC-18 250 mg/kg) of the same compound?
A: substantially less systemic inflammation

Q: And the “expression level of CXCL2 and IL-6 mRNA in tongues” value ([1]; ChemoRT + EC-18 250 mg/kg)?
A: downregulated

Q: What about the “necroptotic signaling axis (RIPK1, RIPK3, MLKL phosphorylation) in tongues” value ([1]; ChemoRT + EC-18 250 mg/kg) of the same compound?
A: significantly modulated

Q: What about the “neutrophils recruited at oral epithelium (IHC)” value ([1]; ChemoRT + EC-18 250 mg/kg) of the same compound?
A: did not

Q: What about the “OM score and rates of ulceration” value ([1]; ChemoRT + EC-18 100 and 250 mg/kg) of the same compound?
A: statistically improvement of OM score and lower rates of ulceration dose-dependently

Q: What about the body weight ([1]; ChemoRT + EC-18 100 and 250 mg/kg p.o. daily) of the same compound?
A: did not exhibit a significant weight loss

Q: What about the bioavailability ([2]; male, SD, rat, plasma, 500-2000 mg/kg oral, read-out: mean absolute bioavailability (BA)) of the same compound?
A: < 0.3%

Q: And the AUC(0-t) [2, 5]?
A: 903 ± 272 ng·h/mL

Q: And the Cmax [2, 5]?
A: 78.1 ± 34.1 ng/mL

Q: And the Tmax [2, 5]?
A: 3.33 ± 1.15 h

Q: And the AUC(0-t) [2, 6]?
A: 2630 ± 1130 ng·h/mL

Q: And the Cmax [2, 6]?
A: 245 ± 54.2 ng/mL

Q: And the Tmax [2, 6]?
A: 3 ± 2.65 h

Q: And the half-life [2, 6]?
A: 12.3 ± 5.08 h

Q: And the AUC(0-t) [2, 7]?
A: 6.97 ± 8.2 ng·h/mL

Q: And the Cmax [2, 7]?
A: 6.87 ± 6.12 ng/mL

Q: And the Tmax [2, 7]?
A: 0.5 ± 0.5 h

Q: What about the AUC(0-t) [2, 8] of the same compound?
A: 44.5 ± 39.5 ng·h/mL

Q: And the Cmax [2, 8]?
A: 12.1 ± 6.66 ng/mL

Q: And the Tmax [2, 8]?
A: 1.67 ± 0.58 h

Q: And the half-life [2, 8]?
A: 3.07 ± 0.87 h

Q: And the “time to reach the lymphatic system” value ([2]; single oral)?
A: ≤ 3 h

Q: And the time to absorption ([2]; single oral 500 or 2000 mg/kg)?
A: ≤ 2 h

Q: And the AUC(0-t) [3, 9]?
A: 39.5 ± 14.8 ng·h/mL

Q: And the Cmax [3, 9]?
A: 7.8 ± 3.4 ng/mL

Q: And the Tmax [3, 9]?
A: 0.4 ± 0.3 h

Q: What about the AUC(0-t) [3, 10] of the same compound?
A: 21.6 ± 11.7 ng·h/mL

Q: And the Cmax [3, 10]?
A: 2.7 ± 1.4 ng/mL

Q: What about the Tmax [3, 10] of the same compound?
A: 2.8 ± 2.4 h

Q: And the AUC(0-t) [3, 11]?
A: 8.6 ± 3.7 ng·h/mL

Q: And the Cmax [3, 11]?
A: 1.9 ± 0.6 ng/mL

Q: And the Tmax [3, 11]?
A: 3.1 ± 4.5 h

Q: And the AUC(0-t) [3, 12]?
A: 38.5 ± 10.3 ng·h/mL

Q: What about the Cmax [3, 12] of the same compound?
A: 4.1 ± 1.4 ng/mL

Q: And the Tmax [3, 12]?
A: 7.8 ± 8.4 h

Q: What about the AUC(0-t) [3, 13] of the same compound?
A: 41.3 ± 12.1 ng·h/mL

Q: And the Cmax [3, 13]?
A: 9.8 ± 2.9 ng/mL

Q: And the Tmax [3, 13]?
A: 0.7 ± 0.2 h

Q: And the AUC(0-t) [3, 14]?
A: 25.3 ± 7.1 ng·h/mL

Q: What about the Cmax [3, 14] of the same compound?
A: 9.7 ± 4.7 ng/mL

Q: And the Tmax [3, 14]?
A: 5.2 ± 8.6 h

Q: And the AUC(0-t) [3, 15]?
A: 80.8 ± 124 ng·h/mL

Q: What about the Cmax [3, 15] of the same compound?
A: 17.2 ± 23.3 ng/mL

Q: And the Tmax [3, 15]?
A: 1.8 ± 2.1 h

Q: And the AUC(0-t) [3, 16]?
A: 51.3 ± 22.6 ng·h/mL

Q: And the Cmax [3, 16]?
A: 12.8 ± 9.9 ng/mL

Q: And the Tmax [3, 16]?
A: 7.6 ± 8.5 h

Q: And the AUC(0-t) [3, 17]?
A: 73.9 ± 27.1 ng·h/mL

Q: And the Cmax [3, 17]?
A: 31.4 ± 14.9 ng/mL

Q: What about the Tmax [3, 17] of the same compound?
A: 0.6 ± 0.2 h

Q: And the AUC(0-t) [3, 18]?
A: 40.7 ± 23.4 ng·h/mL

Q: And the Cmax [3, 18]?
A: 16.4 ± 11.2 ng/mL

Q: What about the Tmax [3, 18] of the same compound?
A: 0.6 ± 0.2 h

Q: And the AUC(0-t) [3, 19]?
A: 16.2 ± 7.8 ng·h/mL

Q: What about the Cmax [3, 19] of the same compound?
A: 17.9 ± 17.5 ng/mL

Q: What about the Tmax [3, 19] of the same compound?
A: 0.6 ± 0.2 h

Q: What about the AUC(0-t) [3, 20] of the same compound?
A: 76.6 ± 9.8 ng·h/mL

Q: And the Cmax [3, 20]?
A: 19.4 ± 12.3 ng/mL

Q: What about the Tmax [3, 20] of the same compound?
A: 2.8 ± 4.2 h

Q: And the AUC(0-t) [3, 21]?
A: 123 ± 17.8 ng·h/mL

Q: What about the Cmax [3, 21] of the same compound?
A: 60.7 ± 14.6 ng/mL

Q: What about the Tmax [3, 21] of the same compound?
A: 0.7 ± 0.2 h

Q: And the AUC(0-t) [3, 22]?
A: 57.1 ± 39.7 ng·h/mL

Q: What about the Cmax [3, 22] of the same compound?
A: 14.2 ± 3 ng/mL

Q: And the Tmax [3, 22]?
A: 5.2 ± 8.6 h

Q: And the AUC(0-t) [3, 23]?
A: 67.3 ± 34.1 ng·h/mL

Q: And the Cmax [3, 23]?
A: 61 ± 42.1 ng/mL

Q: What about the Tmax [3, 23] of the same compound?
A: 0.6 ± 0.2 h

Q: What about the AUC(0-t) [3, 24] of the same compound?
A: 75.9 ± 16 ng·h/mL

Q: And the Cmax [3, 24]?
A: 32.1 ± 8 ng/mL

Q: What about the Tmax [3, 24] of the same compound?
A: 0.5 h

Q: What about the IC50 (CYP2C9) of the same compound?
A: 7.99 mM

Q: What about the IC50 (OCT2) of the same compound?
A: > 0.032 mM

Q: And the “inducible effects on chromosomal aberration” value [4]?
A: EC-18 didn't have

Q: What about the “anaphylaxis reaction / antigenicity” value (Guinea pig) of the same compound?
A: No anaphylaxis reaction

Q: What about the “hERG channel current suppression rate (compensated suppression rate)” value (“hERG channel current suppression rate” below) (hERG channel; 125 μM) of the same compound?
A: 1.39%

Q: And the “hERG channel current suppression rate” value (hERG channel; 250 μM)?
A: 2.97%

Q: And the “hERG channel current suppression rate” value (hERG channel; 500 μM)?
A: 2.54%

Q: What about the “hERG channel current suppression rate” value (hERG channel; 1000 μM) of the same compound?
A: 2.90%

Q: And the “hERG channel current inhibition” value (hERG channel; concentrations up to 1000 μM)?
A: did not inhibit the hERG channel current
